Key:
MCF-7 Cell line = assay: MTT cell proliferation assay, MCF-7 Cell line; type: cell-based; conditions: Homo sapiens, MCF7, 72 h, MTT; for viability at 0.01 µM: MCF-7, 0.01 μM; for viability at 0.1 µM: MCF-7, 0.1 μM; for viability at 2.5 µM: MCF-7, 2.5 μM; for viability at 5 µM: MCF-7, 5 μM; for viability at 10 µM: MCF-7, 10 μM
Method: (§1) 1. Protocol Followed for Anti Cancer Activity and Results, Cell Proliferation Assays: Cell lines used herein were purchased from NCCS (National Center for Cell Sciences) Pune, India. Invitro Activity was performed in NCL (National Chemical Laboratory) Pune. Each cell line was plated in 96-well microtiter plates (10,000 cells per well), and serial dilutions of indicated compounds were added. At the end of the incubation period (72 h at 37° C.), cell viability was determined by a tetrazolium dye, MTT (3-(4,5-dimethylthiazol-2-yl)-2,5-diphenyl tetrazolium bromide) (Promega, USA). The formazan crystals were dissolved in DMSO, and the absorbance at 600 nm was recorded using an ELISA plate reader. IC50 values were calculated using nonlinear regression and defined as the concentration needed for a 50% reduction in absorbance of treated versus untreated control cells.
Table 4 indicates anticancer activity against A549 Cell line. The Gefitinib was used as standard and % cell Viable was measured compared to control. The procedure used was MTT assay as mentioned. […] By using the above procedure, the compounds of the invention were tested on MCF-7 Cell line and the results obtained are presented below in table 5, Refer FIG. 2.

MDA-MB-436 Cell line = assay: MTT cell proliferation assay, MDA-MB-436 Cell line; type: cell-based; conditions: Homo sapiens, 72 h, MTT; for viability at 0.01 µM: MDA-MB-436, 0.01 μM; for viability at 0.1 µM: MDA-MB-436, 0.1 μM; for viability at 2.5 µM: MDA-MB-436, 2.5 μM; for viability at 5 µM: MDA-MB-436, 5 μM; for viability at 10 µM: MDA-MB-436, 10 μM
Method: as §1
By using the above procedure, the compounds of the invention were tested on MDA-MB-436 Cell line and the results obtained are presented below in table 7, Refer FIG. 4.

HOP-62 Cell line = assay: MTT cell proliferation assay, HOP-62 Cell line; type: cell-based; conditions: Homo sapiens, 72 h, MTT; for viability at 0.01 µM: HOP-62, 0.01 μM; for viability at 0.1 µM: HOP-62, 0.1 μM; for viability at 2.5 µM: HOP-62, 2.5 μM; for viability at 5 µM: HOP-62, 5 μM; for viability at 10 µM: HOP-62, 10 μM
Method: as §1
By using the above procedure, the compounds of the invention were tested on HOP-62 Cell line and the results obtained are presented below in table 6, Refer FIG. 3.

[1] = system: U87MG Cell line (Glioblastoma cell line); assay: MTT cell proliferation assay, U87MG Cell line; type: cell-based; conditions: Homo sapiens, U-87 MG, U87MG, 72 h, MTT
Method: as §1
By using the above procedure, the compounds of the invention were tested on U87MG Cell line (glioblastoma cell line) and the results obtained are presented below in table 8, Refer FIG. 5.

[2] = system: A549 Cell line (Lung Cancer Cell line); assay: MTT cell proliferation assay, A549 Cell line; type: cell-based, human; conditions: Homo sapiens, 72 h, MTT; for viability at 0.01 µM: A549, 0.01 μM; for viability at 0.1 µM: A549, 0.1 μM; for viability at 2.5 µM: A549, 2.5 μM; for viability at 5 µM: A549, 5 μM; for viability at 10 µM: A549, 10 μM
Method: as §1
By using the above procedure, the compounds of the invention were tested on A549 Cell line and the results obtained are presented below in table 4, Refer FIG. 1.

Structure (SMILES) | viability at 0.01 µM (MCF-7 Cell line) [%] | viability at 0.1 µM (MCF-7 Cell line) [%] | viability at 2.5 µM (MCF-7 Cell line) [%] | viability at 5 µM (MCF-7 Cell line) [%] | viability at 10 µM (MCF-7 Cell line) [%] | viability at 0.01 µM (MDA-MB-436 Cell line) [%] | viability at 0.1 µM (MDA-MB-436 Cell line) [%] | viability at 2.5 µM (MDA-MB-436 Cell line) [%] | viability at 5 µM (MDA-MB-436 Cell line) [%] | viability at 10 µM (MDA-MB-436 Cell line) [%] | viability at 0.01 µM (HOP-62 Cell line) [%] | viability at 0.1 µM (HOP-62 Cell line) [%] | viability at 2.5 µM (HOP-62 Cell line) [%] | viability at 5 µM (HOP-62 Cell line) [%] | viability at 10 µM (HOP-62 Cell line) [%] | viability at 0.01 µM [1] [%] | viability at 0.1 µM [1] [%] | viability at 2.5 µM [1] [%] | viability at 5 µM [1] [%] | viability at 10 µM [1] [%] | other results
COc1cc2ncnc(Nc3ccc(F)c(Cl)c3)c2cc1OCCCN1CCOCC1 [Gefitinib, reference compound] | 55.2 | 43.7 | 35.3 | 29.3 | 20.3 | 55.2 | 43.7 | 35.3 | 29.3 | 20.3 | 55.2 | 43.7 | 35.3 | 29.3 | 20.3 |  |  |  |  |  | 
Nc1nc(Nc2cccc(C(F)(F)F)c2)sc1-c1nc2ccccc2[nH]1 [Molecule S4-M8, 5-(1H-benzo[d]imidazol-2-yl)-N2-(3-(trifluoromethyl)phenyl)thiazole-2,4-diamine] | 98.6 | 90.8 | 82.6 | 79.6 | 69.6 | 101 | 99.8 | 98.6 | 97.6 | 97.6 | 99.6 | 90.8 | 89.6 | 81.6 | 80.6 | 86.6 | 73.8 | 61.6 | 54.6 | 41.6 | viability at 0.01 µM [2]: 98.6%; viability at 0.1 µM [2]: 88.8%; viability at 2.5 µM [2]: 76.6%; viability at 5 µM [2]: 68.6%; viability at 10 µM [2]: 59.6%
Cc1ccc(Nc2nc(N)c(-c3nc4ccccc4[nH]3)s2)cc1 [Molecule S4-M9, 5-(1H-benzo[d]imidazol-2-yl)-N2-p-tolylthiazole-2,4-diamine] | 100 | 98.8 | 96.3 | 96.3 | 96.6 | 91 | 85.8 | 79.3 | 69.3 | 54.6 | 123 | 101 | 100 | 98.3 | 90.8 | 99.4 | 99.9 | 99.4 | 98.6 | 96.9 | viability at 0.01 µM [2]: 89%; viability at 0.1 µM [2]: 79.8%; viability at 2.5 µM [2]: 68.3%; viability at 5 µM [2]: 57.3%; viability at 10 µM [2]: 48.3%
Cc1ccc2[nH]c(-c3sc(Nc4ccccc4)nc3N)nc2c1 [Molecule S4-M10, 5-(5-methyl-1H-benzo[d]imidazol-2-yl)-N2-phenylthiazole-2,4-diamine] | 141 | 120 | 104 | 100 | 100 | 92.9 | 84 | 76.4 | 61.4 | 49.4 | 104 | 100 | 99.4 | 95.4 | 89.4 | 88.9 | 75 | 68.4 | 55.4 | 41.4 | viability at 0.01 µM [2]: 90.9%; viability at 0.1 µM [2]: 81%; viability at 2.5 µM [2]: 70.4%; viability at 5 µM [2]: 61.4%; viability at 10 µM [2]: 49.4%
COc1ccc(Nc2nc(N)c(-c3nc4cc(C)ccc4[nH]3)s2)cc1 [Molecule S4-M11, N^2-(4-methoxyphenyl)-5-(5-methyl-1H-benzo[d]imidazol-2-yl)thiazole-2,4-diamine] | 157 | 133 | 110 | 101 | 101 | 96.8 | 92.7 | 84.2 | 73.8 | 61.8 | 157 | 101 | 98.2 | 96.8 | 91.8 | 86.8 | 71.7 | 60.2 | 49.8 | 38.8 | viability at 0.01 µM [2]: 94.8%; viability at 0.1 µM [2]: 80.7%; viability at 2.5 µM [2]: 72.8%; viability at 5 µM [2]: 63.8%; viability at 10 µM [2]: 51.8%
Cc1ccc2[nH]c(-c3sc(Nc4ccc(Cl)cc4)nc3N)nc2c1 [Molecule S4-M12, N^2-(4-chlorophenyl)-5-(5-methyl-1H-benzo[d]imidazol-2-yl)thiazole-2,4-diamine] | 99.1 | 91.4 | 85.9 | 74.9 | 70.8 | 94.1 | 89.4 | 79.9 | 65.9 | 51.8 | 102 | 95.4 | 92.9 | 85.9 | 79.9 | 92.1 | 81.4 | 73.9 | 61.9 | 49.8 | viability at 0.01 µM [2]: 93.1%; viability at 0.1 µM [2]: 81.4%; viability at 2.5 µM [2]: 69.9%; viability at 5 µM [2]: 58.9%; viability at 10 µM [2]: 49.9%
Cc1ccc2[nH]c(-c3sc(Nc4cccc(C(F)(F)F)c4)nc3N)nc2c1 [Molecule S4-M13, N^2-(3-(trifluoromethyl)phenyl)-5-(5-methyl-1H-benzo[d]imidazol-2-yl)thiazole-2,4-diamine] | 99.4 | 92.9 | 81.4 | 72.6 | 66.9 | 98.4 | 96.9 | 97.4 | 97.6 | 97.9 | 99.4 | 96.9 | 90.4 | 80.6 | 75.6 | 95.8 | 83.7 | 71.2 | 60.8 | 53.8 | viability at 0.01 µM [2]: 99.4%; viability at 0.1 µM [2]: 82.9%; viability at 2.5 µM [2]: 73.6%; viability at 5 µM [2]: 61.6%; viability at 10 µM [2]: 50.6%
Cc1ccc(Nc2nc(N)c(-c3nc4cc(C)ccc4[nH]3)s2)cc1 [Molecule S4-M14, 5-(5-methyl-1H-benzo[d]imidazol-2-yl)-N2-p-tolylthiazole-2,4-diamine] | 94 | 90.1 | 83.6 | 69.3 | 65.1 | 99 | 98.1 | 98.6 | 99.3 | 94.1 | 101 | 95.1 | 93.6 | 88.3 | 80.1 | 87 | 78.1 | 67.6 | 53.3 | 46.1 | viability at 0.01 µM [2]: 96%; viability at 0.1 µM [2]: 84.1%; viability at 2.5 µM [2]: 71.1%; viability at 5 µM [2]: 62.1%; viability at 10 µM [2]: 51.1%

Source: patent US9862712B2, “Benzimidazole based EGFR inhibitors” (COUNCIL OF SCIENTIFIC & INDUSTRIAL RESEARCH, priority 2014, dated 2018)
